{"source": "paper PMC4613240", "about": "“A Series of New Ligustrazine-Triterpenes Derivatives as Anti-Tumor Agents: Design, Synthesis, and Biological Evaluation” (International Journal of Molecular Sciences, 2015)", "key": {"[1]": {"test_system": "HT-29 (human colon carcinoma)", "test": "MTT cytotoxicity assay, HT-29", "type": "cell-based", "details": "maximal tested concentration 20.0 μM", "method": "(§1) The cytotoxicity of ligustrazine-triterpenes derivatives was evaluated on five tumor cell lines (Bel-7402, HepG2, HT-29, Hela, and MCF-7) using the standard MTT assay. In the study, the antineoplastic drug cisplatin (DDP) was selected as the positive control. The MDCK cell line was used to test the toxicity of the ligustrazine-triterpenes derivatives and DDP.\n(§2) The cell lines Bel-7402 (human hepatocellular carcinoma), HepG2 (human hepatocellular carcinoma), HT-29 (human colon carcinoma), Hela (human cervical cancer), MCF-7 (human breast cancer) were included in this study. All these cell lines were provided by the Chinese Academy of Medical Sciences & Peking Union Medical College. Cultures were maintained as monolayers in RPMI 1640 supplemented with 10% (v/v) heat inactivated fetal bovine serum and 1% (v/v) enicillin/streptomycin (Thermo Technologies, New York, NY, USA) at 37 °C in a humidified atmosphere with 5% CO2. The ligustrazine derivatives under study were dissolved in DMSO (Sigma, St. Louis, MO, USA) and added at required concentrations to the cell culture. Cells incubated without the preparations served as the control.\n(§3) The cytotoxicity of the compounds was evaluated on five cancer cell lines (Bel-7402, HepG2, HT-29, Hela, MCF-7) by the standard MTT assay. In short, exponentially growing cells were seeded into 96-well plates at a density 10^4 cells/mL. The plates were incubated at 37 °C in a humidified 5% CO2 atmosphere. Cells were allowed to adhere to the surface for 24 h and then treated with serial dilutions of the compounds for 72 h. Later, aliquots of [3-(4,5-dimethylthiazol-2-yl)-2,5-diphenyltetrazolium bromide] (MTT) solution (20 μL, 5 mg/mL) were added to each well and the incubation was continued for an additional 4 h. Then the supernatant medium was thrown away. The dark blue formazan crystals formed within the healthy cells were solubilized with DMSO (150 μL) and the absorbance was measured in a plate reader (BIORAD 550 spectrophotometer, Bio-rad Life Science Development Ltd., Beijing, China) at 490 nm. Wells containing no drugs were used as control group. The IC50 values were defined as the concentration of compounds that produced a 50% reduction of surviving cells and calculated using Logit-method. Tumor cell growth inhibitory rate was calculated in the following Equation (1): % inhibition = (1 − Sample group OD/Control group OD) × 100% (1)"}, "[2]": {"test_system": "Hela (human cervical cancer)", "test": "MTT cytotoxicity assay, Hela", "type": "cell-based", "details": "72 h, maximal tested concentration 20.0 μM", "method": "as §1, §2, §3"}, "HepG2 cells [3]": {"test_system": "HepG2 cells", "test": "Morphological observation using DAPI staining", "type": "cell-based, human", "details": "HepG2, 2, 4, 8 μM for 72 h", "method": "DAPI staining was used to evaluate apoptosis associated morphological changes in this assay. HepG2 cells were seeded in the six well plates at a density of 4 × 10^3 cells/well and incubated overnight. Then the cells were incubated in the presence of 4a at various concentrations (2, 4, 8 μΜ) at 37 °C and 5% CO2 for 72 h. Cells were then washed with PBS, fixed with 4% paraformaldehyde followed by 70% ethanol. Finally, fixed cells were stained with DAPI (DAPI, Molecular Probes/Invitrogen Life Technologies, Carlsbad, CA, USA) at the concentration of 1 mg/mL and incubated for 1 min in dark. The cell morphological changes were observed by fluorescent microscopy and images were captured by digital camera."}, "HepG2 cells [4]": {"test_system": "HepG2 cells", "test": "Intracellular free Ca2+ detection (Fluo-3AM, flow cytometry)", "type": "cell-based, human", "details": "72 h, control MFI 4773", "method": "A sustained increase in intracellular Ca^2+ concentrations is recognized as a factor for cell death or injury. The level of intracellular free Ca^2+ is examined by the fluorescent dye Fluo-3AM. The Fluo-3 AM is converted to Fluo-3 upon deacetylation within the cells, and Fluo-3 increases green fluorescence upon Ca^2+ binding. […] As the concentration of 4a increased from 5.0 to 6.0 to 7.0 μM, intracellular free Ca^2+ fluorescence increased dramatically (from 4800 to 5612 to 6955). It was in accordance with the tendencies of mitochondrial membrane potential and cell apoptosis.\nThe level of intracellular free Ca^2+ was examined by the fluorescent dye Fluo-3AM. HepG2 cells (1 × 10^5 cells/mL) in logarithmic growth phase were cultured in 6-well plates for 24 h at 37 °C in incubator with 5% CO2. After exposed to different concentrations of 4a (5, 6, 7 μM) for 72 h, cells were harvested and washed twice with cold PBS, then resuspended in HBSS buffer with 10 μM Fluo-3AM (Fluo-3AM, Shanghai Beyotime Biotech. Co., Ltd., Shanghai, China), and incubated for 30 min at 37 °C in the dark. Detection of intracellular Ca^2+ was carried out by the Flow Cytometer at 488 nm excitation wavelength."}}}
{"smiles": "C=C(C)[C@@H]1CC[C@]2(C(=O)OCc3nc(C)c(C)nc3C)CC[C@]3(C)C(CCC4[C@@]5(C)CC[C@H](O)C(C)(C)C5CC[C@]43C)C12", "note": "(stereo partly drawn) [Compound 4a, 3β-Hydroxy-lup-20(29)-ene-28-oic acid-3,5,6-trimethylpyrazin-2-methyl ester]", "values": [{"measurement": "IC50", "setting": "[1]; 72 h", "result": 5.23, "unit": "µM"}, {"measurement": "IC50", "setting": "[1]; Homo sapiens, HT-29, 72 h", "result": "< 5.23", "unit": "µM"}, {"measurement": "IC50", "setting": "[2]", "result": 4.34, "unit": "µM"}, {"measurement": "IC50", "setting": "[2]; Homo sapiens, HeLa", "result": "< 5.23", "unit": "µM"}, {"measurement": "cell morphology after DAPI staining", "setting": "HepG2 cells [3]", "result": "displayed morphological features of apoptosis"}, {"measurement": "intracellular free Ca2+ fluorescence (MFI), Fluo-3AM", "setting": "HepG2 cells [4]; HepG2, 5 μM", "result": 4800}, {"measurement": "intracellular free Ca2+ fluorescence (MFI), Fluo-3AM", "setting": "HepG2 cells [4]; HepG2, 6 μM", "result": 5612}, {"measurement": "intracellular free Ca2+ fluorescence (MFI), Fluo-3AM", "setting": "HepG2 cells [4]; HepG2, 7 μM", "result": 6955}]}
